Data reported in patent US8546452B2, “S1P3 receptor antagonist” (TOA Eiyo Ltd., priority 2005, dated 2013).

Biological target: hS1P3 (Homo sapiens, UniProt Q99500)
Assay: Suppressive effect on S1P-induced increase in [Ca2+]i, CHO-K1 cells expressing S1P3 (Fura 2-AM), IC50
Format: cell-based
Settings: S1P solution 50 nmol/L, read-out: hS1P3 suppression IC50

Sequence of hS1P3 (Q99500 whole entry): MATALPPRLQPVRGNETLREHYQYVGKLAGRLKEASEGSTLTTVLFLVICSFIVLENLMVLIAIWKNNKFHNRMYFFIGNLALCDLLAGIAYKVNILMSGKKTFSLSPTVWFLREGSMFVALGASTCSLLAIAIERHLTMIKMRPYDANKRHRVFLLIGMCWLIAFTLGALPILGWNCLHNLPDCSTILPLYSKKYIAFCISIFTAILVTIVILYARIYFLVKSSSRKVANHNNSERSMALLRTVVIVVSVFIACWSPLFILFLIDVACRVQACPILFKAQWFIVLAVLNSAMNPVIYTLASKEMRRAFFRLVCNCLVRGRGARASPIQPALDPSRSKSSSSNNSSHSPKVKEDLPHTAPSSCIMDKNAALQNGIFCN

Compound | IC50
O=C(C(=NNc1ccc(Cl)cc1)Nc1ccc(F)cc1)c1ccccc1 [Compound 9, 2-(4-chlorophenylhydrazono)-2-(4-fluorophenylamino)acetophenone] | 4.57 µM
O=C(C(=NNc1ccc(Cl)cc1)Nc1cccc(Cl)c1)c1ccccc1 [Compound 11, 2-(3-chlorophenylamino)-2-(4-chlorophenylhydrazono)acetophenone] | 5.34 µM
O=C(C(=NNc1ccc(Cl)cc1)Nc1ccc(Cl)cc1)c1ccccc1 [Compound 12, 2-(4-chlorophenylamino)-2-(4-chlorophenylhydrazono)acetophenone] | 4.84 µM
CCOC(=O)C(=NNc1ccc(Cl)cc1)Nc1ccc(Cl)cc1 [Compound 14, ethyl 1-(4-chlorophenylamino)-1-(4-chlorophenylhydrazono)acetate] | 1.87 µM
CCOC(=O)C(=NNc1ccc(Cl)cc1)Nc1cc(F)cc(F)c1 [Compound 17, ethyl 1-(4-chlorophenylhydrazono)-1-(3,5-difluorophenylamino)acetate] | 1.92 µM
O=C(C(=NNc1ccc(Cl)cc1)Nc1cc(F)cc(F)c1)N1CCCCC1 [Compound 25, [1-(4-chlorophenylhydrazono)-1-(3,5-difluorophenylamino)acetyl]piperidine] | 11.7 µM
CC(C)(C)NC(=O)C(=NNc1ccc(Cl)cc1)Nc1cc(Cl)cc(Cl)c1 [Compound 30, N-tert-butyl-[1-(4-chlorophenylhydrazono)-1-(3,5-dichlorophenylamino)]acetamide] | 12.3 µM
CC(C)(C)NC(=O)C(=NNc1ccc(Cl)cc1)Nc1ccc(Cl)c(Cl)c1 [Compound 31, N-tert-butyl-[1-(4-chlorophenylhydrazono)-1-(3,4-dichlorophenylamino)]acetamide] | 10.5 µM
CC(C)(C)C(=O)C(=NNc1ccc(Cl)cc1)Nc1cc(Cl)nc(Cl)c1 [Compound 35, 1-(4-chlorophenylhydrazono)-1-(2,6-dichloropyridin-4-ylamino)-3,3-dimethyl-2-butanone] | 7.49 µM
CC(C)(C)C(=O)C(=NNc1ccc(Cl)cc1)Nc1cccc(C(F)(F)F)c1 [Compound 36, 1-(4-chlorophenylhydrazono)-1-(3-trifluoromethylphenylamino)-3,3-dimethyl-2-butanone] | 2.53 µM
CC(C)(C)C(=O)C(=NNc1ccc(Cl)cc1)Nc1ccc(Cl)c(Cl)c1 [Compound 38, 1-(4-chlorophenylhydrazono)-1-(3,4-dichlorophenylamino)-3,3-dimethyl-2-butanone] | 0.31 µM
CC(C)(C)C(=O)C(=NNc1ccc(F)cc1)Nc1ccc(Cl)cc1 [Compound 55, 1-(4-chlorophenylamino)-1-(4-fluorophenylhydrazono)-3,3-dimethyl-2-butanone] | 2.75 µM
CC(C)(C)C(=O)C(=NNc1ccc(F)cc1)Nc1ccc(Br)cc1 [Compound 56, 1-(4-bromophenylamino)-1-(4-fluorophenylhydrazono)-3,3-dimethyl-2-butanone] | 2.16 µM
CC(C)(C)C(=O)C(=NNc1ccc(F)cc1)Nc1cc(Cl)cc(Cl)c1 [Compound 59, 1-(3,5-dichlorophenylamino)-1-(4-fluorophenylhydrazono)-3,3-dimethyl-2-butanone] | 1.39 µM
CC(C)(C)C(=O)C(=NNc1ccc(F)cc1)Nc1ccc(Cl)c(Cl)c1 [Compound 60, 1-(3,4-dichlorophenylamino)-1-(4-fluorophenylhydrazono)-3,3-dimethyl-2-butanone] | 1.02 µM
CC(C)(C)C(=O)C(=NNc1ccc(C(F)(F)F)cc1)Nc1cccc(F)c1 [Compound 66, 1-(3-fluorophenylamino)-1-(4-trifluoromethylphenylhydrazono)-3,3-dimethyl-2-butanone] | 7.05 µM
CC(C)(C)C(=O)C(=NNc1ccc(C(F)(F)F)cc1)Nc1ccc(Cl)cc1 [Compound 68, 1-(4-chlorophenylamino)-1-(4-trifluoromethylphenylhydrazono)-3,3-dimethyl-2-butanone] | 9.09 µM
CC(C)(C)C(=O)C(=NNc1ccc(C(F)(F)F)cc1)Nc1ccc(Cl)c(Cl)c1 [Compound 72, 1-(3,4-dichlorophenylamino)-1-(4-trifluoromethylphenylhydrazono)-3,3-dimethyl-2-butanone] | 3.64 µM
CC(C)(C)C(=O)C(=NNc1ccc(Br)cc1)Nc1ccc(C#N)cc1 [Compound 77, 1-(4-bromophenylhydrazono)-1-(4-cyanophenylamino)-3,3-dimethyl-2-butanone] | 1.51 µM
CC(C)(C)C(=O)C(=NNc1ccc(C#N)cc1)Nc1cccc(F)c1 [Compound 81, 1-(4-cyanophenylhydrazono)-1-(3-fluorophenylamino)-3,3-dimethyl-2-butanone] | 5.52 µM
CC(C)(C)C(=O)C(=NNc1ccc(C#N)cc1)Nc1ccc(F)cc1 [Compound 82, 1-(4-cyanophenylhydrazono)-1-(4-fluorophenylamino)-3,3-dimethyl-2-butanone] | 5.07 µM
COc1ccc(NN=C(Nc2ccc(Cl)cc2)C(=O)C(C)(C)C)cc1 [Compound 90, 1-(4-chlorophenylamino)-1-(4-methoxyphenylhydrazono)-3,3-dimethyl-2-butanone] | 6.58 µM
CC(=O)c1ccc(NN=C(Nc2ccc(F)cc2)C(=O)C(C)(C)C)cc1 [Compound 92, 1-(4-acetylphenylhydrazono)-1-(4-fluorophenylamino)-3,3-dimethyl-2-butanone] | 11.6 µM
C#Cc1ccc(NC(=NNc2ccc(C(C)=O)cc2)C(=O)C(C)(C)C)cc1 [Compound 95, 1-(4-acetylphenylhydrazono)-1-(4-ethynylphenylamino)-3,3-dimethyl-2-butanone] | 18.6 µM
CC(C)(C)C(=O)C(=NNc1ccc(S(C)(=O)=O)cc1)Nc1ccc(Cl)cc1 [Compound 99, 1-(4-chlorophenylamino)-1-(4-methanesulfonylphenylhydrazono)-3,3-dimethyl-2-butanone] | 10.6 µM
CC(C)(C)C(=O)C(=NNc1ccc(Br)cc1)Nc1ccc(Cl)c(F)c1 [Compound 105, 1-(4-bromophenylhydrazono)-1-(4-chloro-3-fluorophenylamino)-3,3-dimethyl-2-butanone] | 0.52 µM
C#Cc1ccc(NN=C(Nc2ccc(Cl)cc2)C(=O)C(C)(C)C)cc1 [Compound 106, 1-(4-chlorophenylamino)-1-(4-ethynylphenylhydrazono)-3,3-dimethyl-2-butanone] | 0.66 µM
C#Cc1cccc(NC(=NNc2ccc(Cl)c(Cl)c2)C(=O)C(C)(C)C)c1 [Compound 107, 1-(3,4-dichlorophenylhydrazono)-1-(3-ethynylphenylamino)-3,3-dimethyl-2-butanone] | 0.69 µM
CCCCC(=O)C(=NNc1ccc(Cl)cc1)Nc1ccc(Cl)c(Cl)c1 [Compound 109, 1-(4-chlorophenylhydrazono)-1-(3,4-dichlorophenylamino)-2-hexanone] | 0.76 µM
O=C(C(=NNc1ccc(Cl)cc1)Nc1ccc(Cl)cc1)c1ccco1 [Compound 116, 1-(4-chlorophenylamino)-1-(4-chlorophenylhydrazono)-2-(2-furyl)-2-ethanone] | 2.07 µM

The next lines start with the values.

IC50 | Compound
6.72 µM | O=C(C(=NNc1ccc(Cl)cc1)Nc1cccc(F)c1)c1ccccc1 [Compound 1, 2-(4-Chlorophenylhydrazono)-2-(3-fluorophenylamino)acetophenone]
2.81 µM | O=C(C(=NNc1ccc(Cl)cc1)Nc1cc(Cl)nc(Cl)c1)c1ccccc1 [Compound 4, 2-(4-chlorophenylhydrazono)-2-(2,6-dichloropyridin-4-ylamino)acetophenone]
3.94 µM | CCOC(=O)C(=NNc1ccc(Cl)cc1)Nc1cccc(C(F)(F)F)c1 [Compound 16, ethyl 1-(4-chlorophenylhydrazono)-1-(3-trifluoromethylphenylamino)acetate]
2.34 µM | CCOC(=O)C(=NNc1ccc(Cl)cc1)Nc1cc(Cl)cc(Cl)c1 [Compound 18, ethyl 1-(4-chlorophenylhydrazono)-1-(3,5-dichlorophenylamino)acetate]
14.5 µM | O=C(C(=NNc1ccc(Cl)cc1)Nc1ccc(Cl)cc1)N1CCCCC1 [Compound 23, [1-(4-chlorophenylamino)-1-(4-chlorophenylhydrazono)acetyl]piperidine]
1.22 µM | CC(C)(C)C(=O)C(=NNc1ccc(Cl)cc1)Nc1cc(F)cc(F)c1 [Compound 34, 1-(4-chlorophenylhydrazono)-1-(3,5-difluorophenylamino)-3,3-dimethyl-2-butanone]
0.49 µM | CC(C)(C)C(=O)C(=NNc1ccc(Cl)cc1)Nc1cc(Cl)cc(Cl)c1 [Compound 37, 1-(4-chlorophenylhydrazono)-1-(3,5-dichlorophenylamino)-3,3-dimethyl-2-butanone]
2.44 µM | CC(C)(C)C(=O)C(=NNc1ccccc1)Nc1cc(Cl)cc(Cl)c1 [Compound 51, 1-(3,5-dichlorophenylamino)-1-(phenylhydrazono)-3,3-dimethyl-2-butanone]
5.72 µM | CC(C)(C)C(=O)C(=NNc1ccc(F)cc1)Nc1ccc(C(F)(F)F)cc1 [Compound 58, 1-(4-fluorophenylhydrazono)-1-(4-trifluoromethylphenylamino)-3,3-dimethyl-2-butanone]
6.64 µM | C#Cc1ccc(NC(=NNc2ccc(C#N)cc2)C(=O)C(C)(C)C)cc1 [Compound 86, 1-(4-cyanophenylhydrazono)-1-(4-ethynylphenylamino)-3,3-dimethyl-2-butanone]
14 µM | COc1ccc(NC(=NNc2ccc(C#N)cc2)C(=O)C(C)(C)C)cc1 [Compound 87, 1-(4-cyanophenylhydrazono)-1-(4-methoxyphenylamino)-3,3-dimethyl-2-butanone]
8.9 µM | CC(=O)c1ccc(NN=C(Nc2cccc(F)c2)C(=O)C(C)(C)C)cc1 [Compound 91, 1-(4-acetylphenylhydrazono)-1-(3-fluorophenylamino)-3,3-dimethyl-2-butanone]
0.97 µM | CCC(CC)C(=O)C(=NNc1ccc(Cl)cc1)Nc1ccc(Cl)cc1 [Compound 110, 1-(4-chlorophenylamino)-1-(4-chlorophenylhydrazono)-3-ethyl-2-pentanone]
2.09 µM | CC(C)(C)CC(=O)C(=NNc1ccc(Cl)cc1)Nc1ccc(F)cc1 [Compound 114, 1-(4-chlorophenylhydrazono)-1-(4-fluorophenylamino)-4,4-dimethyl-2-pentanone]
